What was measured:
[1] = target: T1, rhGAA (Myozyme) (Homo sapiens, UniProt P10253); assay: thermostability assay of Myozyme, Tycho NT.6; format: binding
T1 construct: purchased Sanofi Genzyme

[2] = target: T2, glucosylceramide synthase (GCS) (Mus musculus, UniProt O88693); assay: in situ cell inhibition of GCS in RAW 264.7 cells, glucosylation of C6-NBD-ceramide; format: cell-based; conditions: mean ± SD
T2 construct: endogenous in cells; host or cells: RAW 264.7
T2 sequence (O88693 1-394): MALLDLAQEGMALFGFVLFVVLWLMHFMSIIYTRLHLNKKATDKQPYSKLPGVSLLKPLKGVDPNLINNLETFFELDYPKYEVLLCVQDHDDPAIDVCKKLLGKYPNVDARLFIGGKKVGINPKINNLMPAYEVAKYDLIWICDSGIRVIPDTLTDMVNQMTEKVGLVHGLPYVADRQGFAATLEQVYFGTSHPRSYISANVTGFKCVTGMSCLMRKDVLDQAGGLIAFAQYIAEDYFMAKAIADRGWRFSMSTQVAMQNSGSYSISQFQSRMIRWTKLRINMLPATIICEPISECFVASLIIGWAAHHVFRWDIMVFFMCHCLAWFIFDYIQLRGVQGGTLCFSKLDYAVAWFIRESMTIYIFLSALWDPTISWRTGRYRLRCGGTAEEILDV

[3] = target: T3, ER α-glucosidase II (GANAB) (Homo sapiens, UniProt Q14697); assay: in vitro apparent IC50, GANAB in fibroblast lysates, 4-MU-α-D-glucopyranoside; format: biochemical; conditions: apparent IC50; Pompe disease fibroblast lysates; pH 7.0; mean ± SD
T3 construct: GANAB (from Pompe Disease Fibroblast Lysates); endogenous in cells; host or cells: human fibroblasts (lysate)
T3 sequence (Q14697 29-944): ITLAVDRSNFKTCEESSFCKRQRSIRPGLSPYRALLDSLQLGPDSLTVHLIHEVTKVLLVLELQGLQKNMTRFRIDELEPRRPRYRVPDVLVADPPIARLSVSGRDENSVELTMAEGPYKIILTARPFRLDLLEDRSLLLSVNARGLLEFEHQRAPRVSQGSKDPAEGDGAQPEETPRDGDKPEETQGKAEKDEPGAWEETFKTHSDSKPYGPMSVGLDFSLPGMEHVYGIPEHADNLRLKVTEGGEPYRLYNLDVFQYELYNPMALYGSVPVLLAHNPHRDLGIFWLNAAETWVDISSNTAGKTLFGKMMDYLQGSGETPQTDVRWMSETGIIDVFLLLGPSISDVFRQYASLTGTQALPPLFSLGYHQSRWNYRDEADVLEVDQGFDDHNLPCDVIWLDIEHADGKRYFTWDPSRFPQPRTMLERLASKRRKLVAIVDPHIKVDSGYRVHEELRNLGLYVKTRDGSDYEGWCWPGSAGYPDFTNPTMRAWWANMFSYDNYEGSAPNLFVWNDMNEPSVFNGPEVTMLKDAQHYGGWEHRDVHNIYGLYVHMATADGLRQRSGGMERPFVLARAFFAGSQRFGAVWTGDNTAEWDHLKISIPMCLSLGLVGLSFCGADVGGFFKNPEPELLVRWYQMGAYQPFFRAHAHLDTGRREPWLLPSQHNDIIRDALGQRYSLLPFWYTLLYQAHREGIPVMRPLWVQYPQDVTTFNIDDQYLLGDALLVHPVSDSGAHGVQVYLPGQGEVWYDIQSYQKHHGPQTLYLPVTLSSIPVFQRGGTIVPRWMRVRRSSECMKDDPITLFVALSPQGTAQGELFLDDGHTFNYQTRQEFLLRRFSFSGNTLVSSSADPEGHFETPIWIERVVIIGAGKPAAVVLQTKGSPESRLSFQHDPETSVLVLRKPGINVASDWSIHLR
T3 sequence (P14314 15-528 partner): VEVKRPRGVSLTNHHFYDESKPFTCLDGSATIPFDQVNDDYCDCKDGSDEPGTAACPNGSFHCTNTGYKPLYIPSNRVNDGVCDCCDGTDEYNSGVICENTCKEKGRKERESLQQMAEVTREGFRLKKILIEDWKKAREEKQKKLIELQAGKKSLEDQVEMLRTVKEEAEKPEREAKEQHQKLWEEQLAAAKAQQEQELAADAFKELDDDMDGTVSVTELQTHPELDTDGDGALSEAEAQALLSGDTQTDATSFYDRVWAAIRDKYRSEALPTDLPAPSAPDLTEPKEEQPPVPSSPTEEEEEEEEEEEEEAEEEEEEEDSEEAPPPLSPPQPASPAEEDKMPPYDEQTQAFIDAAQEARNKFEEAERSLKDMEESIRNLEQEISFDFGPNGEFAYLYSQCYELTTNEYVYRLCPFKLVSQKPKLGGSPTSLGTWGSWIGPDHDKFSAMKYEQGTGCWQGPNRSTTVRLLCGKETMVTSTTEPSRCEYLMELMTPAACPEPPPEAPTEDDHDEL

[4] = target: α-glucosidase GAA (Myozyme) (Homo sapiens, UniProt P10253); assay: in vitro apparent IC50, GAA (Myozyme), 4-MU-α-D-glucopyranoside; format: biochemical; parameters: purchased Sanofi Genzyme; conditions: Myozyme 47 nM, pH 4.0, 30 min preincubation, mean ± SD

In the case of O=S1(=O)N[C@H]2[C@H](CO)[C@@H](O)[C@H](O)[C@@H](O)[C@H]2O1 [compound 6], the “effect on rhGAA thermostability, in words” value ([1]; increasing temperature) is reported as “does not prevent enzyme unfolding”, the IC50 [2] is reported as > 50 µM and the IC50 [3] is reported as 47 ± 1.75 µM. It also gave an IC50 [4] of 112 ± 2.54 µM.

With O=S1(=O)N[C@@H]2[C@H](O)[C@@H](O)[C@H](O)[C@@H](CO)[C@@H]2O1 [compound 4, 1,6-epi-cyclophellitol cyclosulfamidate] the “maximum shift in inflection temperature (ΔTimax)” value ([1]; Myozyme 1 μM, 0-20 μM compound, pH 6.5) was 11.2 °C, the EC50 ([1]; Myozyme 1 μM, 0-20 μM compound, pH 6.5, read-out: EC50 of thermal stabilization) was 1.16 µM and the IC50 [2] was > 50 µM. The IC50 [3] was 496 ± 30 µM and the IC50 [4] was 5.17 ± 0.195 µM.

Source: PMC9389588, “1,6-epi-Cyclophellitol Cyclosulfamidate Is a Bona Fide Lysosomal α-Glucosidase Stabilizer for the Treatment of Pompe Disease” (Journal of the American Chemical Society, 2022)
